The structures appear in SMILES notation. Like-named read-outs stand apart in the source and are kept apart here.

The test system of assay [1] is human coronary artery smooth muscle cells (HCASMC), PDGF-BB induced. Nature of the assay: Anti-cell proliferation in normal cells in the presence of PDGF stimulation (14C-thymidine incorporation). The settings on record: read-out: IC50 on cell proliferation, HCASMC (PDGF-BB). It is filed as cell-based. As to the method:
The effect of compounds of the invention on cell proliferation in normal human primary cells, in particular, cryopreserved human coronary artery smooth muscle cells (HCASMC), in the presence of PDGF stimulation was tested based on incorporation of ^14C-thymidine into DNA of cells.
The following materials were purchased from their respective sources: Recombinant human PDGF beta homodimer, rhPDGF-BB (herein after referred as “PDGF-BB”) purchased from R&D System (Minneapolis, Minn., Cat. No 220-BB); Cryopreserved human coronary artery smooth muscle cells (HCASMC), tissue culture medium for HCASMC, and smooth muscle growth supplement (SMGS) purchased from Cascade Biologics (Portland, Oreg., HCASMC Cat. No: C-017-5C; Medium 231 Cat. No: M-231-500; and SMGS Cat. No: S-007-25); 96-well CytoStar tissue culture treated scintillating microplates purchased from Amersham (Piscataway, N.J., Cat. No: RPNQ0160); Methyl ^14C-thymidine at 56 mCi/mmol (250 μCi/2.5 mL) purchased from NEN (Cat. No.: NEC568); DMSO from Sigma (St. Louis, Mo., Cat. No: D-5879); Sterile reagent reservoirs from Costar (VWR International, Inc., West Chester, Pa., Cat. No: 4870); Dulbecco's PBS from Gibco (Cat. No: 14190-136); Backing tape white plate cover for bottom of CytoStar plate from Packard (Cat. No: 6005199)
HCASMC were seeded at approx. 4000 cells/well in a volume of 100 μl of complete Medium 231 with SMGS. Cells were grown for 48 hrs until they reach 80% confluence. They were then quiesced in SMGS-free Medium 231 for 24 hrs. Cell media were replenished with SMGS-free Medium 231 containing PDGF-BB at 50 ng/mL in a total volume of 100 μl/well; and 1 μl of test compounds in serially diluted concentrations in 100% DMSO was added to each well. For the maximum growth control wells, only 1 μl of 100% DMSO was added; for minimum growth (blank) wells, 1 μl of 10 mM cycloheximide was added to each well. After 24 hours incubation, 20 μl of ^14C-thymidine mix was added to each well and the ^14C-thymidine mix was made according the following regimen:
Cells were incubated for an additional 24 hrs in media containing test compounds, PDGF-BB and ^14C-thymidine. Then, the reaction mixture was discarded and the plate was washed 3 times each with 200 μl PBS. Subsequently, each well on the plate was filled with 200 μl of PBS. The top of the plate was sealed with transparent plate sealer and white plate backing sealers were applied to the bottom of plates. The retained ^14C inside each well was measured using a Packard TopCount.
The amount of ^14C retained in a well correlates to the proliferation of cells inside the well. […] In order to test the potency of inhibition of the present compound, IC50 of an individual compound on the inhibition of PDGF-BB induced HCASMC proliferation was measured using the above procedure. As used herein, said IC50 refers to the concentration of the test compound at which the amount of PDGF-BB induced HCASMC proliferation is reduced by one-half as compared to the maximum growth control wells without the compound.
For orientation: Dividing cells build labelled thymidine or BrdU into new DNA.

The test system of assay [2] is PDGF-BB-stimulated angiogenesis. Nature of the assay: Anti-angiogenesis matrigel mouse model (MM assay) supplemented with PDGF-BB, plug hemoglobin content. Format: in vivo, mice (C57BL/6J). The settings on record: mice. From the text: Angiogenesis inhibitory activity of a compound of this invention can be measured in vivo using the matrigel mouse model (MM Assay) of angiogenesis (Passaniti et al., Laboratory Investigation, 67: 519–528, 1992). The matrigel mouse assay is a well-established method to quantify angiogenesis (see e g. Capogrossi et al., Methods in Molecular Medicine, Vascular Disease: Molecular Biology and Gene Therapy Protocols, Edited by: A. H. Baker, Humana Press Inc., Totowa, N.J., 1999). The model has been characterized extensively for its relevance as a mimic of the process of angiogenesis and has been used extensively to evaluate in vivo both potential angiogenic and anti-angiogenic activity of numerous compounds/agents. […] All procedures involving animals were conducted in an animal facility fully accredited by the American Association for Assessment and Accreditation of Laboratory Animal Care (AAALAC) and in accordance with The Guide for the Care and Use of Laboratory Animals (NIH). […]
Normal male mice (C57BL/6J) were injected subcutaneously (ventrally below rib cage at abdominal midline) with 1.0 mL of chilled matrigel supplemented with a single purified pro-angiogenic growth factor (100–500 ng/mL of either rhPDGF-BB (supra), recombinant human basic fibroblast growth factor, rhFGF-basic (R&D System Cat. No 233-FB) or recombinant human vascular endothelial growth factor, rhVEGF (PanVera Cat. No R2951) and heparin (35 U/mL). Compounds are formulated as 0.1% suspensions (1 mg/mL final concentration) in 0.5% methylcellulose. Vehicle or test compounds (8–10 mice per treatment group) were administered orally by gavage beginning two hours after matrigel injections. […] Supernatants were removed and the hemoglobin concentration in the plug extract was measured spectrophotometrically using the Drabkin's assay method (Drabkin's reagent kit 525-A; SIGMA) and read on a Beckman DU 7400 Spectrophotometer. […] Group differences were analyzed statistically using the Mann-Whitney Test, with a p-value of 0.05 or less considered statistically significant. […]

Where [3] appears, read: PDGF-BB induced HCASMC proliferation.

`COc1ccc2c(c1)-c1n[nH]c(Nc3ccccc3)c1C2` [Compound 39, (7-Methoxy-2,4-dihydro-indeno[1,2-c]pyrazol-3-yl)-phenyl-amine]: the IC50 in assay [1] (setting [3]) was 9 nM.

Regarding `Cc1ccc2c(c1)-c1n[nH]c(Nc3ccccc3)c1C2` [Compound 22, (7-Methyl-2,4-dihydro-indeno[1,2-c]pyrazol-3-yl)-phenyl-amine], the IC50 in assay [1] (setting [3]) was 278 nM.

With `COc1cccc(Nc2[nH]nc3c2Cc2cc4c(cc2-3)OCO4)c1` [Compound 97, (2,9-Dihydro-5,7-dioxa-2,3-diaza-cyclopenta[a]-s-indacen-1-yl)-(3-methoxy-phenyl)-amine], the IC50 in assay [1] (setting [3]) is 19 nM.

In the case of `CN1CCN(c2ccc3c(c2)Cc2c-3n[nH]c2Nc2cccc(Br)c2)CC1` [Compound 122, (3-Bromo-phenyl)-[6-(4-methyl-piperazin-1-yl)-2,4-dihydro-indeno[1,2-c]pyrazol-3-yl]-amine], the IC50 in assay [1] (setting [3]) is 125 nM.

With `COc1cc2c(cc1OC)-c1n[nH]c(NCc3ccccc3)c1C2` [Compound 63, Benzyl-(6,7-dimethoxy-2,4-dihydro-indeno[1,2-c]pyrazol-3-yl)-amine], the IC50 in assay [1] (setting [3]) came to 14 nM.

`COC(=O)c1cccc(Nc2[nH]nc3c2Cc2cc(OCCCN4CCCC4)c(OC)cc2-3)c1` [Compound 157, 3-[7-Methoxy-6-(3-pyrrolidin-1-yl-propoxy)-2,4-dihydro-indeno[1,2-c]pyrazol-3-ylamino]-benzoic acid methyl ester]: the IC50 in assay [1] (setting [3]) was 8 nM.

On to `COc1cc2c(cc1OC)-c1n[nH]c(Nc3cccnc3)c1C2` [Compound 30, (6,7-Dimethoxy-2,4-dihydro-indeno[1,2-c]pyrazol-3-yl)-pyridin-3-yl-amine], for which, in assay [1] (setting [3]), the IC50 was 2 nM.

Turning to `COC(=O)c1cccc(Nc2[nH]nc3c2Cc2cc(OC)c(OC)cc2-3)c1` [Compound 11, 3-(6,7-Dimethoxy-2,4-dihydro-indeno[1,2-c]pyrazol-3-ylamino)-benzoic acid methyl ester], the IC50 in assay [1] (setting [3]) amounted to 14 nM.

On to `COc1cc2c(cc1OC)-c1n[nH]c(Nc3ccccc3F)c1C2` [Compound 12, (6,7-Dimethoxy-2,4-dihydro-indeno[1,2-c]pyrazol-3-yl)-(2-fluoro-phenyl)-amine], for which, in assay [2], the “% Inhibition @ 30 mg/kg po (angiogenesis, MM assay supplemented with PDGF-BB)” value came to 45%. Besides, in assay [1] (setting [3]), the IC50 was determined as 106 nM.

For the compound `COc1cc2c(cc1OC)-c1n[nH]c(Nc3cccc(F)c3)c1C2` [Compound 14, (3-Fluoro-phenyl)-(6,7-dimethoxy-2,4-dihydro-indeno[1,2-c]pyrazol-3-yl)-amine], the “% Inhibition @ 30 mg/kg po (angiogenesis, MM assay supplemented with PDGF-BB)” value in assay [2] is on record as 40%. Further, the IC50 in assay [1] is 3 nM.
